US6660770B2, “Pesticidal activity of functionalized alkenes” (North Carolina State University, priority 1999, dated 2003)

Experiments:
[1] = test system: Mosquito larvae; test: Mosquito larval mortality bioassay; format: in vivo; conditions: mosquito larval mortality followed for three days in microtiter plates; compound dissolved in dimethylsulfoxide; Brewer's yeast
Method: Mosquito larval mortality was followed for three days in microtiter plates containing 160 μL sterile water, 1-4 μL of the test compound dissolved in dimethylsulfoxide, and 10 μL of 2% Brewer's yeast. Controls were run under the same conditions without the test compounds. Larval mortality in the controls was 3% for 1-3 μL dimethylsulfoxide, and up to 20% for 4 μL dimethylsulfoxide.

[2] = test system: Ornithodoros parkeri; test: Repellent assay for ticks; format: in vivo; conditions: ten ticks; for # ticks on acetone: control paper opposite the compound paper; for # ticks on compound: test paper saturated with 60 uL of 15 mg/ml test solution
Method: A repellent assay for ticks is carried out as follows: (1) Prepare 15 mg/ml test solution of test compound in 100% acetone in individual 500 uL bullet tubes. Prepare control solution (1 uL olive oil plus 100 uL 100 acetone). (2) prepare half circle test papers (radious =2.25 cm) from Whatman filter paper (# 2 qualitative). (3) Saturate test papers with 60 uL of 100% acetone, control, or test solution. Test papers are in individual sterile petri dishes during this process. (4) Allow test papers to air dry at room temperature for one hour. (5) Select and place ten ticks into separate sterile glass petri dishes. Allow ticks to acclimate to covered dishes for one hour. (6) Transfer one test paper treated with a test solution and one test paper treated with the control solution to each of separate sterile petri dish bottoms. On control included two test papers treated with acetone. A second control included two test papers treated with the control solution. (7) Place ten ticks in between the two test papers. Place the test arenas in a dark room at room temperature. (8) Record the location of ticks 15 minutes, 1 hour and 2 hours after being placed in the test arenas.

| SMILES | Activity (LD50) [1] | # ticks on acetone ([2]; 15 minutes) | # ticks on acetone ([2]; 1 hour) | # ticks on acetone ([2]; 2 hours) | also measured |
| --- | --- | --- | --- | --- | --- |
| O=C(O)CC/C=C/CCc1ccc(O)cc1 [E-7-(4-Hydroxyphenyl)hept-4-enoic acid, E-7-(4-hydroxyphenyl)hept-4-enoic acid] | 0.59 ± 0.03 mM |  |  |  |  |
| O=C(O)CCCCCCc1ccccc1 [7-Phenylheptanoic acid] | 0.19 ± 0.02 mM |  |  |  |  |
| CCOC(=O)CC/C=C/CCc1ccc(-c2ccccc2)cc1 [Compound 221, Ethyl E-7-((4-phenyl)phenyl)hept-4-enoate] |  | 5 | 4 | 8 | # ticks on compound ([2]; 15 minutes): 5; # ticks on compound ([2]; 1 hour): 4; # ticks on compound ([2]; 2 hours): 2 |
| O=C(O)CC/C=C/CCc1ccccc1 [E-7-Phenylhept-4-enoic acid] | <0.08 mM |  |  |  |  |
| CCOC(=O)CC/C=C/CCC1CCCCC1 [Compound 218, Ethyl E-7-(Cyclohexyl)hept-4-enoate] |  | 10 | 10 | 10 |  |
| COc1ccc(CC/C=C/CCC(=O)O)cc1 [E-7-(4-Methoxyphenyl)hept-4-enoic acid] | 1.28 mM |  |  |  |  |
| O=C(O)CC/C=C/CCC1CCCCC1 [Compound 172, E-7-(Cyclohexyl)hept-4-enoic Acid] |  | 8 | 10 | 10 | # ticks on compound ([2]; 15 minutes): 2 |
